According to ChEMBL document CHEMBL3045146, “Synthesis and biological activity of novel phenyltriazolinone derivatives” (2010):
The source made the active and inactive calls. The calls are words filed in the database; no cut-off is given here.

How the values were obtained:
Poa annua = test: Herbicidal activity against Poa annua assessed as growth inhibition at 150 g/ha; format: functional, organism-based
Echinochloa crus-galli = test: Herbicidal activity against Echinochloa crus-galli (barnyard grass) assessed as growth inhibition at 150 g/ha; format: functional, organism-based
Brassica juncea = test: Herbicidal activity against Brassica juncea assessed as growth inhibition at 150 g/ha; format: functional, organism-based
Digitaria sanguinalis = test: Herbicidal activity against Digitaria sanguinalis (hairy crabgrass) assessed as growth inhibition at 150 g/ha; format: functional, organism-based
Amaranthus retroflexus = test: Herbicidal activity against Amaranthus retroflexus assessed as growth inhibition at 150 g/ha; format: functional, organism-based
Eclipta prostrata = test: Herbicidal activity against Eclipta prostrata assessed as growth inhibition at 150 g/ha; format: functional; settings: for inhibition of growth at 150 g/ha: read-out: GI

| SMILES | growth inhibition (GI) (Poa annua) | growth inhibition (GI) (Echinochloa crus-galli) | growth inhibition (GI) (Brassica juncea) | growth inhibition (GI) (Digitaria sanguinalis) | growth inhibition (GI) (Amaranthus retroflexus) | growth inhibition (GI) (Eclipta prostrata) | inhibition of growth at 150 g/ha (Eclipta prostrata) |
| --- | --- | --- | --- | --- | --- | --- | --- |
| COC(=O)N(OC)c1ccccc1Cn1c(C)nn(-c2cc(NS(C)(=O)=O)c(Cl)cc2Cl)c1=O | inactive | inactive | inactive | inactive | inactive | inactive |  |
| CCS(=O)(=O)Nc1cc(-n2nc(C)n(Cc3ccccc3/C(=C\OC)C(=O)OC)c2=O)c(F)cc1Cl | inactive | inactive | inactive | inactive | inactive | inactive |  |
| CCS(=O)(=O)Nc1cc(-n2nc(C)n(Cc3ccccc3/C(=N\OC)C(=O)OC)c2=O)c(Cl)cc1Cl | inactive | inactive | inactive | inactive | inactive | inactive |  |
| COC(=O)N(OC)c1ccccc1Cn1c(C)nn(-c2cc(NS(C)(=O)=O)c(Cl)cc2F)c1=O | inactive | inactive | inactive | inactive | inactive |  | 70% |
| CO/N=C(/C(=O)OC)c1ccccc1Cn1c(C)nn(-c2cc(NS(C)(=O)=O)c(Cl)cc2Cl)c1=O | inactive | inactive | inactive | inactive | inactive | inactive |  |
| CO/N=C(/C(=O)OC)c1ccccc1Cn1c(C)nn(-c2cc(NS(C)(=O)=O)c(Cl)cc2F)c1=O | inactive | inactive | inactive | inactive | inactive | inactive |  |
| CCS(=O)(=O)Nc1cc(-n2nc(C)n(Cc3ccccc3N(OC)C(=O)OC)c2=O)c(Cl)cc1Cl | Active | Active | inactive | Active | inactive | inactive |  |
| CCS(=O)(=O)Nc1cc(-n2nc(C)n(Cc3ccccc3N(OC)C(=O)OC)c2=O)c(F)cc1Cl | inactive | inactive | inactive | inactive | inactive |  | 70% |
| CO/C=C(/C(=O)OC)c1ccccc1Cn1c(C)nn(-c2cc(NS(=O)(=O)c3ccccc3)c(Cl)cc2Cl)c1=O | inactive | inactive | inactive | inactive | inactive | inactive |  |
| COC(=O)N(OC)c1ccccc1Cn1c(C)nn(-c2cc(NS(=O)(=O)c3ccccc3)c(Cl)cc2F)c1=O | inactive | inactive | inactive | inactive | inactive | inactive |  |
| CO/C=C(/C(=O)OC)c1ccccc1Cn1c(C)nn(-c2cc(NS(C)(=O)=O)c(Cl)cc2Cl)c1=O | inactive | inactive | inactive | inactive | inactive | inactive |  |
| COC(=O)N(OC)c1ccccc1Cn1c(C)nn(-c2cc(NS(=O)(=O)c3ccccc3)c(Cl)cc2Cl)c1=O | Active | Active | inactive | Active | inactive | inactive |  |
| CO/C=C(/C(=O)OC)c1ccccc1Cn1c(C)nn(-c2cc(NS(C)(=O)=O)c(Cl)cc2F)c1=O | inactive | inactive | inactive | inactive | inactive | inactive |  |
| CO/N=C(/C(=O)OC)c1ccccc1Cn1c(C)nn(-c2cc(NS(=O)(=O)c3ccccc3)c(Cl)cc2Cl)c1=O | inactive | inactive | inactive | inactive | inactive |  | 70% |
| CCS(=O)(=O)Nc1cc(-n2nc(C)n(Cc3ccccc3/C(=C\OC)C(=O)OC)c2=O)c(Cl)cc1Cl | inactive | inactive | inactive | inactive | inactive | inactive |  |
| CO/N=C(/C(=O)OC)c1ccccc1Cn1c(C)nn(-c2cc(NS(=O)(=O)c3ccccc3)c(Cl)cc2F)c1=O | inactive | inactive | inactive | inactive | inactive | inactive |  |
| CO/C=C(/C(=O)OC)c1ccccc1Cn1c(C)nn(-c2cc(NS(=O)(=O)c3ccccc3)c(Cl)cc2F)c1=O | inactive | inactive | inactive | inactive | inactive | inactive |  |
